From patent publication US20160067246A1, “USE OF PHOSPHODIESTERASE 5A INHIBITORS FOR THE TREATMENT OF MUSCULAR DYSTROPHY” (CEDARS-SINAI MEDICAL CENTER, priority 2013, published 2016) come the findings set out here.

Each structure is given as a SMILES string. Where “and” joins values, the source holds several entries; their conditions need not be identical. Identical values can stand only once. Like-named read-outs stand apart in the source and are kept apart here.

Format in all cases: in vivo, human
In data set [1] the test system is patients with Becker muscular dystrophy (BMD). As to the kind of experiment: Blood pressure, heart rate and adverse events in BMD tadalafil trial. Here is the method:
Subjects were studied in the supine position. Heart rate was measured continuously by electrocardiography and BP by automated oscillometric sphygmomanometry ([…] Monitor 300 Series, […].). […] The order of tadalafil/placebo was random. The research pharmacist placed tadalafil tablets or lactose powder (placebo) in opaque capsules to blind patients and investigators, both for the test dose and study dose of drug or placebo. Patients were queried about potential tadalafil-specific side-effects both for safety monitoring and to assess whether blinding was maintained. tadalafil blood levels were measured using high performance liquid chromatography/tandem mass spectrometry (NMS Labs Willow Grove, Pa.).

In data set [2] the test system is boys with Duchenne muscular dystrophy (DMD). Nature of the data set: Functional sympatholysis (LBNP, NIR spectroscopy, rest vs handgrip) with PDE5 inhibition in DMD. As to conditions: DMD. Here is the method: Forearm muscle oxygenation was measured with near-infrared (NIR) spectroscopy, as previously described.^4B Briefly, optodes were placed over the belly of the flexor digitorum profundus, the main muscle recruited during handgrip. The optodes were housed in a customized flexible rubber casing, ensuring a fixed and invariant position of the optodes relative to each other, and was secured to the skin with adhesive. The optodes were covered with an optically dense, black vinyl sheet, to minimize interference from external light or loss of NIR transmitted light. The forearm was wrapped with an elastic bandage to minimize movement of the optodes.
Before each experiment, absorption and scattering coefficients were calibrated against an external standard. After each experiment, a cuff was inflated on the upper arm to supra-systolic pressure of 200 mmHg to establish the total labile signal (TLS, the difference between the baseline and nadir in muscle tissue oxygenation). Changes in forearm tissue oxygenation were expressed as a percentage of TLS.
Handgrip exercise was performed with a dynamometer (Smedley Hand Dynamometer modified by Stoelting). To determine maximal voluntary contraction (MVC), each subject was asked to grip the dynamometer as hard as possible. […] Subjects performed intermittent isometric handgrip (20 handgrips per minute, 50% duty cycle) at 20% MVC for 7 minutes.
The subjects lower body was enclosed in a negative pressure chamber to the level of the iliac crest as previously described.^9B The pressure of the chamber was measured by a Statham transducer (Gould Inc.). Lower body negative pressure (LBNP) at −20 mmHg simulates mild orthostatic stress (that is, transition from the supine to the seated position). This technique mainly unloads the cardiopulmonary baroreceptors, producing highly reproducible reflex increases in sympathetic vasoconstrictor drive to the skeletal muscle vasculature without changing systemic blood pressure.^9B
The subjects' lower body was enclosed in a negative pressure chamber to the level of the iliac crest as previously described. The pressure in the chamber was measured by a Statham transducer (Gould Inc.). Lower body negative pressure (LBNP) at −20 to −30 mmHg simulates mild orthostatic stress caused by transition from the supine to the seated position. This technique mainly unloads the low-pressure cardiopulmonary baroreceptors, producing highly reproducible reflex increases in sympathetic vasoconstrictor drive to the skeletal muscle vasculature without changing systemic blood pressure. To measure exercise-induced attenuation of reflex vasoconstriction (i.e., functional sympatholysis), the LBNP was (i) applied at rest, and then (ii) superimposed on mild rhythmic handgrip at 20% MVC. Reflex vasoconstriction was measured as the LBNP-induced decrease in forearm muscle oxygenation by NIR spectroscopy. Using the pressure inside the LBNP chamber as a trigger, the Powerlab software was programed to mean the HbO2+MbO2 signal for 20 seconds before the onset of LBNP and for 20 seconds before the offset of LBNP; the difference between these mean values was taken as the LBNP-induced change in forearm muscle tissue oxygenation (20). Blood pressure, heart rate, and handgrip force were also recorded in response to 2 minutes of LBNP applied at rest and during the third to fifth minutes of the 7-minute exercise protocol.
Patients received 0.5 mg/kg of oral sildenafil or tadalafil on day 1, followed by 1.0 mg/kg of sildenafil or tadalafil on day 2. Patients then crossed over 2 weeks later for the opposite drug. Experiments were performed 1 hour (sildenafil) or 3 hours (tadalafil) after oral treatment to match the experiment with the peak blood level. Patients were queried about potential side-effects throughout the study visit. […]

The nature of data set [3]: Pharmacokinetic study and drug blood levels in boys with DMD. As to conditions: for half-life: serum, oral, read-out: elimination half-life (converted). On the procedure:
Serum blood samples for pharmacokinetic determinations were collected from patients at time 0-hr, 0.25-hr, 0.5-hr, 1-hr, 2-hr, 4-hr, 8-hr, and 24-hr following each treatment (sildenafil and tadalafil) and each dose (0.5 vs. 1.0 mg/kg). Blood levels were measured with high-performance liquid chromatography-tandem mass spectrometry (NMS Labs).
(§1) Patients received 0.5 mg/kg of oral sildenafil or tadalafil on day 1, followed by 1.0 mg/kg of sildenafil or tadalafil on day 2. Patients then crossed over 2 weeks later for the opposite drug. Experiments were performed 1 hour (sildenafil) or 3 hours (tadalafil) after oral treatment to match the experiment with the peak blood level. Patients were queried about potential side-effects throughout the study visit.

The subject of data set [4] is boys with Duchenne muscular dystrophy (DMD). Nature of the data set: Safety data / side-effects of PDE5 inhibitors in boys with DMD. Here is the method: Subjects were studied in the supine position. Heart rate was measured continuously by electrocardiography, and blood pressure measured by automated oscillometric sphygomanometry using a child's cuff (Welch Allyn Vital Signs Monitor 300 Series).
as §1

[5] abbreviates: 0.5 mg/kg oral, analysis of 10 of the 12 boys.
Setting [6] is: 0.5 mg/kg oral, analysis using all 12 boys.
Where [7] appears, read: 1.0 mg/kg oral, analysis of 10 of the 12 boys.
[8] abbreviates: 1.0 mg/kg oral, analysis using all 12 boys.

The term half-life denotes the time in which the quantity being followed falls by half. With `CN1CC(=O)N2[C@H](c3ccc4c(c3)OCO4)c3[nH]c4ccccc4c3C[C@@H]2C1=O` [tadalafil], the “adverse events or side-effects” value in data set [1] (10 mg test dose and 20 mg study dose) was “no adverse events or side-effects”. Besides, in data set [1] (post-tadalafil (pre 72±2), P>0.05), the “diastolic blood pressure post-tadalafil” value was determined as 73±3 mm Hg. In data set [1] (post-tadalafil (pre 84±4), P>0.05), this compound had a heart rate post-tadalafil of 80±4 beats per minute. For the same compound, the “systolic blood pressure post-tadalafil” value in data set [1] (post-tadalafil (pre 116±3), P>0.05) came to 114±4 mmHg. Besides, the “attenuation of the reflex decrease in muscle oxygenation during handgrip” value turned out to be 45±8% in data set [2] (setting [5]); 57±16% in data set [2] (0.5 mg/kg oral, analysis using all 12 boys (NIR in 10)); 63±5% in data set [2] (setting [7]); 80±11% in data set [2] (1.0 mg/kg oral, analysis using all 12 boys (NIR in 10)). Also, the “LBNP-induced ΔHbO2+MbO2 (% TLS) at rest” value was −20±2% in data set [2] (setting [5]), −20±2% in data set [2] (setting [6]), −17±1% in data set [2] (setting [7]) and −16±2% in data set [2] (setting [8]). Also, the “LBNP-induced ΔHbO2+MbO2 (% TLS) during handgrip” value in data set [2] (setting [5]) was −11±1%; in data set [2] (setting [6]), −9±3%; in data set [2] (setting [7]), −7±1%; in data set [2] (setting [8]) it was −4±2%. In data set [3] (boys with DMD, 1.0 mg/kg oral), this compound registered a peak blood level of 492.5 ± 47.3 ng/mL. Besides, in data set [3] (boys with DMD, 0.5 and 1.0 mg/kg oral), the “time of peak blood level after oral administration” value lay within 2 to 4 h. The “time the drug remained elevated in the blood” value in data set [3] (male, human, in vivo, po) is reported as “up to 24 hours”. The half-life was 24.9 ± 3.1 h in data set [3] (male, human, boys with DMD, 0.5 mg/kg dose) and 39.5 ± 6.6 h in data set [3] (male, human, boys with DMD, 1.0 mg/kg dose). In addition, the “duration of (penile) erection in an individual patient” value in data set [4] (higher dose 1.0 mg/kg) was 4 h; in data set [4] (low dose 0.5 mg/kg, 0.5 mg/kg), > 4 h and 3 h and 6 h.
